# Measured values from ChEMBL document CHEMBL5365485 (J Med Chem, 2023).
# The source made the active and inactive calls. The rule behind the calls is not given here.
# Experiments:
# [1] = target: Hypoxia-inducible factor 1-alpha (Homo sapiens) (UniProt Q16665); experiment: Stabilization of HIF-1alpha in human HeLa cells at 50 uM incubated for 2 hrs by Western blot analysis relative to VH298; type: cell-based
# [2] = target: Hypoxia-inducible factor 1-alpha (Homo sapiens) (UniProt Q16665); experiment: Stabilization of HIF-1alpha in HEK293 cells at 50 uM incubated for 2 hrs by Western blot analysis relative to VH298; type: cell-based
# [3] = target: Hypoxia-inducible factor 1-alpha (Homo sapiens) (UniProt Q16665); experiment: Stabilization of hydroxylated HIF-1alpha in human HeLa cells at 50 uM incubated for 2 hrs by Western blot analysis relative to VH298; type: cell-based
# [4] = target: Hypoxia-inducible factor 1-alpha (Homo sapiens) (UniProt Q16665); experiment: Stabilization of hydroxylated HIF-1alpha in HEK293 cells at 50 uM incubated for 2 hrs by Western blot analysis relative to VH298; type: cell-based
# [5] = target: Von Hippel-Lindau disease tumor suppressor/Elongin B/Elongin C (Homo sapiens) (UniProt P40337+Q15370+Q15369); experiment: Binding affinity to biotinylated VHL/Elongin B/Elongin C (unknown origin) immobilized in SA sensor chip assessed as second-order on-rate constant for association (Kon) by SPR analysis; type: protein-complex assay
# [6] = target: T1, von Hippel-Lindau disease tumor suppressor (Homo sapiens, UniProt P40337); experiment: Inhibition of NanoLuc-fused VHL (unknown origin) transfected in live HEK293 cells using NanoGlo substrate incubated for 30 mins by tracer based NanoBRET assay; type: cell-based
# HeLa [7] = experiment: Upregulation of HIF-1alpha level in human HeLa cells at 50 uM incubated for 1 hr by immunoblot analysis; type: functional, cell-based
# HeLa [8] = experiment: Upregulation of hydroxylated HIF-1alpha level in human HeLa cells at 50 uM incubated for 1 hr by immunoblot analysis; type: functional, cell-based
# [9] = target: Hypoxia-inducible factor 1-alpha (Homo sapiens) (UniProt Q16665); experiment: Induction of HIF-1alpha transcription activity in human HeLa cells at 150 uM incubated for 32 hrs by HRE-luciferase based assay; type: cell-based
# [10] = target: Hypoxia-inducible factor 1-alpha (Homo sapiens) (UniProt Q16665); experiment: Induction of HIF-1alpha transcription activity in human U2OS cells at 150 uM incubated for 32 hrs by HRE-luciferase based assay; type: cell-based
# [11] = target: T2, Von Hippel-Lindau disease tumor suppressor/Elongin B/Elongin C (Homo sapiens, UniProt P40337); experiment: Binding affinity to biotinylated VHL/Elongin B/Elongin C (unknown origin) immobilized in SA sensor chip assessed as dissociation constant by SPR analysis; type: protein-complex assay
# HeLa [12] = experiment: Upregulation of HIF-1alpha level in human HeLa cells at 10 to 100 uM incubated for 1 hr by immunoblot analysis; type: functional, cell-based; conditions: dose 10-100 µM
# HeLa [13] = experiment: Upregulation of hydroxylated HIF-1alpha level in human HeLa cells at 10 to 100 uM incubated for 1 hr by immunoblot analysis; type: functional, cell-based; conditions: dose 10-100 µM
# [14] = target: T1, von Hippel-Lindau disease tumor suppressor; experiment: Inhibition of NanoLuc-fused VHL (unknown origin) transfected in permeabilized HEK293 cells using NanoGlo substrate incubated for 30 mins by tracer based NanoBRET assay; type: cell-based
# [15] = target: Hypoxia-inducible factor 1-alpha (Homo sapiens) (UniProt Q16665); experiment: Induction of HIF-1alpha transcription activity in human HeLa cells incubated for 32 hrs by HRE-luciferase based assay; type: cell-based
# [16] = target: Hypoxia-inducible factor 1-alpha (Homo sapiens) (UniProt Q16665); experiment: Induction of HIF-1alpha transcription activity in human U2OS cells incubated for 32 hrs by HRE-luciferase based assay; type: cell-based
# [17] = target: Hypoxia-inducible factor 1-alpha (Homo sapiens) (UniProt Q16665); experiment: Induction of HIF-1alpha transcription activity in human HeLa cells assessed as increase in CA9 mRNA level at 50 uM incubated for 16 hrs by RT-qPCR analysis; type: cell-based
# [18] = target: T2, Von Hippel-Lindau disease tumor suppressor/Elongin B/Elongin C; experiment: Binding affinity to VHL (54 to 213 residues)/N-terminal Avi-tagged biotinylated-Elongin B (1 to 104 residues)/Elongin C (17 to 112 residues) (unknown origin) expressed in Escherichia coli cells immobilized in SA sensor chip assessed as dissociation constant by SPR analysis
# [19] = target: T2, Von Hippel-Lindau disease tumor suppressor/Elongin B/Elongin C; experiment: Inhibition of VHL/Elongin B/Elongin C (unknown origin) using FAM-DEALA-Hyp-YIPD as substrate by fluorescence polarization assay; type: protein-complex assay
# [20] = target: T2, Von Hippel-Lindau disease tumor suppressor/Elongin B/Elongin C; experiment: Binding affinity to N-terminal His6-tagged VHL (54 to 213 residues)/Elongin B (1 to 104 residues)/Elongin C (17 to 112 residues) (unknown origin) expressed in Escherichia coli BL21(DE3) cells assessed as dissociation constant by ITC analysis
# Sequence of Hypoxia-inducible factor 1-alpha (Homo sapiens) (Q16665 whole entry, looked up): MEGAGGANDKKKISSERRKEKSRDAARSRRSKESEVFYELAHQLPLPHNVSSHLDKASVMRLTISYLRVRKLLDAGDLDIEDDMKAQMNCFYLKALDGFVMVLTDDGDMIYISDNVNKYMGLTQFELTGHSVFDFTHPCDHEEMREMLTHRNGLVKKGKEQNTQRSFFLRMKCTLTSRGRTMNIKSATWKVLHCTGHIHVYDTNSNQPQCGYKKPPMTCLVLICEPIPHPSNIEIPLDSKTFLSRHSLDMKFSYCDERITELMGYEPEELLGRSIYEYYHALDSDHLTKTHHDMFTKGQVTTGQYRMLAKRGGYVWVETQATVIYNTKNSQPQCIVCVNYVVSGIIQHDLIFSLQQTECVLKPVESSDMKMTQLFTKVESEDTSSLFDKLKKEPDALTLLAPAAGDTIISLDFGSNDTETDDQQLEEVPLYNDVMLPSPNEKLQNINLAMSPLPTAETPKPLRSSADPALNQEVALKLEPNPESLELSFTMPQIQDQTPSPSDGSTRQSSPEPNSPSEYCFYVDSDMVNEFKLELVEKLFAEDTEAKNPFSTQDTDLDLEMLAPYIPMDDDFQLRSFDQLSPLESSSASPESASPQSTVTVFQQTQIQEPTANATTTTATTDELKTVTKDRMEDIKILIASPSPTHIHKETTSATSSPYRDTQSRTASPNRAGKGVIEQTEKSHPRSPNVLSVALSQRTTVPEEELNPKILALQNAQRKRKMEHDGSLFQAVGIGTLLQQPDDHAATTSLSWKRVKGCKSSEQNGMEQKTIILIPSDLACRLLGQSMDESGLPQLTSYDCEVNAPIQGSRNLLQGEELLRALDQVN
# T1 sequence (P40337 whole entry, the tested form may be a part): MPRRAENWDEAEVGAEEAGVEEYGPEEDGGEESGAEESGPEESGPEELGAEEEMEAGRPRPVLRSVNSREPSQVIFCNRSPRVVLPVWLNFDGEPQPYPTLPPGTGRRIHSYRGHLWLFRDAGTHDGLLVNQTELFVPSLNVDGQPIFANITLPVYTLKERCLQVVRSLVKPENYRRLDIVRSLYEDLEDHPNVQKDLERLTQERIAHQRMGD
# Sequence of Von Hippel-Lindau disease tumor suppressor/Elongin B/Elongin C (Homo sapiens) (P40337 whole entry, looked up, the tested form may be a part): as the sequence (P40337 whole entry, the tested form may be a part) above
# Sequence of Von Hippel-Lindau disease tumor suppressor/Elongin B/Elongin C (Homo sapiens) (Q15369 whole entry, looked up, the tested form may be a part): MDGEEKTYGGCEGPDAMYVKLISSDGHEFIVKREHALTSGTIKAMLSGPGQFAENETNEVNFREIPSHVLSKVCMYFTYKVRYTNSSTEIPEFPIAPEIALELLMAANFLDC
# Sequence of Von Hippel-Lindau disease tumor suppressor/Elongin B/Elongin C (Homo sapiens) (Q15370 whole entry, looked up, the tested form may be a part): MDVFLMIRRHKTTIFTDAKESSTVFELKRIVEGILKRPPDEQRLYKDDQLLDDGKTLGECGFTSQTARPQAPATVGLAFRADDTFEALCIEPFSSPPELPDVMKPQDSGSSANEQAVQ
# T2 sequence (P40337 whole entry, looked up): as the sequence (P40337 whole entry, the tested form may be a part) above
Activity [1] [%],Activity [2] [%],Activity [3] [%],Activity [4] [%],K [5],SMILES,also measured
155,90,221,110,,Cc1cc(-c2scnc2C)ccc1[C@H](C)NC(=O)[C@@H]1C[C@@H](O)CN1C(=O)[C@@H](NC(=O)C1(C#N)CC1)C(C)(C)C,
155,152,217,137,1 10^6/M/s,Cc1cc(-c2scnc2C)c(F)cc1[C@H](C)NC(=O)[C@@H]1C[C@@H](O)CN1C(=O)[C@@H](NC(=O)C1(F)CC1)C(C)(C)C,IC50 [6]: 366 nM
,,,,,Cc1ncsc1-c1ccc(CNC(=O)[C@@H]2C[C@H](O)CN2C(=O)[C@@H](NC(=O)C2(C#N)CC2)C(C)(C)C)cc1,Activity (HeLa [7]): inactive; Activity (HeLa [8]): inactive; Activity [9]: inactive; Activity [10]: inactive
107,89,108,75,1 10^6/M/s,Cc1ncsc1-c1ccc(CNC(=O)[C@@H]2C[C@@H](O)CN2C(=O)[C@@H](NC(=O)C2(F)CC2)C(C)(C)C)cc1F,
95,73,98,68,1 10^6/M/s,COc1cc(-c2scnc2C)c(F)cc1CNC(=O)[C@@H]1C[C@@H](O)CN1C(=O)[C@@H](NC(=O)C1(F)CC1)C(C)(C)C,
124,110,153,76,1 10^6/M/s,Cc1cc(-c2scnc2C)c(F)cc1CNC(=O)[C@@H]1C[C@@H](O)CN1C(=O)[C@@H](NC(=O)C1(F)CC1)C(C)(C)C,Kd [11]: 72 nM
182,224,263,208,1 10^6/M/s,Cc1cc(-c2scnc2C)ccc1[C@H](C)NC(=O)[C@@H]1C[C@@H](O)CN1C(=O)[C@@H](NC(=O)C1(F)CC1)C(C)(C)C,Activity (HeLa [12]): Active; Activity (HeLa [13]): Active; IC50 [6]: 164 nM; IC50 [14]: 122 nM; Activity [15]: Dose-Dependent Effect; Activity [16]: Dose-Dependent Effect; Activity [17]: Active
,,,,,Cc1ncsc1-c1ccc(CNC(=O)[C@@H]2C[C@@H](O)CN2C(=O)[C@@H](NC(=O)C2(C#N)CC2)C(C)(C)C)cc1,Activity [15]: Dose-Dependent Effect; Activity [16]: Dose-Dependent Effect; Activity [17]: Active
,,,,,CC(=O)N[C@H](C(=O)N1C[C@H](O)C[C@H]1C(=O)NCc1ccc(-c2scnc2C)cc1C(F)(F)F)C(C)(C)C,Kd [18]: 268 nM
116,78,120,69,1 10^6/M/s,Cc1cc(-c2scnc2C)ccc1CNC(=O)[C@@H]1C[C@@H](O)CN1C(=O)[C@@H](NC(=O)C1(F)CC1)C(C)(C)C,
105,48,123,52,,Cc1ncsc1-c1ccc([C@H](C)NC(=O)[C@@H]2C[C@@H](O)CN2C(=O)[C@@H](NC(=O)C2(C#N)CC2)C(C)(C)C)cc1F,
,,,,,Cc1ncsc1-c1ccc(CNC(=O)[C@@H]2C[C@@H](O)CN2C(=O)Cc2cccc(N)c2C)cc1,IC50 [19]: 900 nM
,,,,,CC(=O)N[C@H](C(=O)N1C[C@H](O)[C@H](F)[C@H]1C(=O)NCc1ccc(-c2scnc2C)cc1)C(C)(C)C,Kd [20]: 244 nM
128,145,179,137,,COc1cc(-c2scnc2C)c(F)cc1[C@H](C)NC(=O)[C@@H]1C[C@@H](O)CN1C(=O)[C@@H](NC(=O)C1(F)CC1)C(C)(C)C,Activity (HeLa [12]): Active; Activity (HeLa [13]): Active; Activity [15]: Dose-Dependent Effect; Activity [16]: Dose-Dependent Effect; Activity [17]: Active
,,,,,CC(=O)N[C@H](C(=O)N1C[C@H](O)C[C@H]1C(=O)NCc1ccc(-c2scnc2C)c(C(F)(F)F)c1)C(C)(C)C,Kd [18]: 2990 nM
89,78,88,66,,Cc1cc(-c2scnc2C)ccc1CNC(=O)[C@@H]1C[C@@H](O)CN1C(=O)[C@@H](NC(=O)C1(C#N)CC1)C(C)(C)C,
120,92,177,102,1 10^6/M/s,Cc1ncsc1-c1ccc([C@H](C)NC(=O)[C@@H]2C[C@@H](O)CN2C(=O)[C@@H](NC(=O)C2(F)CC2)C(C)(C)C)cc1F,
83,18,74,20,,Cc1ncsc1-c1ccc(CNC(=O)[C@@H]2C[C@@H](O)CN2C(=O)[C@@H](NC(=O)C2(C#N)CC2)C(C)(C)C)cc1F,
